Results published in BigSolDB 2.1.

In the case of `COc1cc(Cl)nc(N)n1`, the solubility (mole fraction) (in 1,4-dioxane, 283.15 K) is reported as 0.0229, the solubility (mole fraction) (in 1,4-dioxane, 288.15 K) is reported as 0.0264 and the solubility (mole fraction) (in 1,4-dioxane, 293.15 K) is reported as 0.0316. It also gave a solubility (mole fraction) (in 1,4-dioxane, 298.15 K) of 0.0367, a solubility (mole fraction) (in 1,4-dioxane, 303.15 K) of 0.0422 and a solubility (mole fraction) (in 1,4-dioxane, 308.15 K) of 0.0493. For the same compound, the solubility (mole fraction) (in 1,4-dioxane, 313.15 K) was 0.0569, the solubility (mole fraction) (in 1,4-dioxane, 318.15 K) was 0.0648 and the solubility (mole fraction) (in 1,4-dioxane, 323.15 K) was 0.0746. It also gave a solubility (mole fraction) (in DMF, 273.15 K) of 0.0496, a solubility (mole fraction) (in DMF, 278.15 K) of 0.0544 and a solubility (mole fraction) (in DMF, 283.15 K) of 0.0595. For the same compound, the solubility (mole fraction) (in DMF, 288.15 K) was 0.0648, the solubility (mole fraction) (in DMF, 293.15 K) was 0.0712 and the solubility (mole fraction) (in DMF, 298.15 K) was 0.0775. It also gave a solubility (mole fraction) (in DMF, 303.15 K) of 0.0846, a solubility (mole fraction) (in DMF, 308.15 K) of 0.0926 and a solubility (mole fraction) (in DMF, 313.15 K) of 0.101. For the same compound, the solubility (mole fraction) (in DMF, 318.15 K) was 0.11, the solubility (mole fraction) (in DMF, 323.15 K) was 0.12 and the solubility (mole fraction) (in acetone, 273.15 K) was 0.0076. It also gave a solubility (mole fraction) (in acetone, 278.15 K) of 0.00947, a solubility (mole fraction) (in acetone, 283.15 K) of 0.0117 and a solubility (mole fraction) (in acetone, 288.15 K) of 0.0143. The solubility (mole fraction) (in acetone, 293.15 K) was 0.0174, the solubility (mole fraction) (in acetone, 298.15 K) was 0.0211 and the solubility (mole fraction) (in acetone, 303.15 K) was 0.0255. The solubility (mole fraction) (in acetone, 308.15 K) was 0.0302, the solubility (mole fraction) (in acetone, 313.15 K) was 0.0358 and the solubility (mole fraction) (in acetone, 318.15 K) was 0.0422. The solubility (mole fraction) (in acetone, 323.15 K) was 0.0492, the solubility (mole fraction) (in acetonitrile, 273.15 K) was 0.00136 and the solubility (mole fraction) (in acetonitrile, 278.15 K) was 0.00174. It also gave a solubility (mole fraction) (in acetonitrile, 283.15 K) of 0.00223, a solubility (mole fraction) (in acetonitrile, 288.15 K) of 0.00276 and a solubility (mole fraction) (in acetonitrile, 293.15 K) of 0.00345. For the same compound, the solubility (mole fraction) (in acetonitrile, 298.15 K) was 0.00426, the solubility (mole fraction) (in acetonitrile, 303.15 K) was 0.00523 and the solubility (mole fraction) (in acetonitrile, 308.15 K) was 0.00633. For the same compound, the solubility (mole fraction) (in acetonitrile, 313.15 K) was 0.00773, the solubility (mole fraction) (in acetonitrile, 318.15 K) was 0.00927 and the solubility (mole fraction) (in acetonitrile, 323.15 K) was 0.0111. It also gave a solubility (mole fraction) (in chloroform, 273.15 K) of 0.00237, a solubility (mole fraction) (in chloroform, 278.15 K) of 0.00306 and a solubility (mole fraction) (in chloroform, 283.15 K) of 0.00389. For the same compound, the solubility (mole fraction) (in chloroform, 288.15 K) was 0.00492, the solubility (mole fraction) (in chloroform, 293.15 K) was 0.00612 and the solubility (mole fraction) (in chloroform, 298.15 K) was 0.00758. The solubility (mole fraction) (in chloroform, 303.15 K) was 0.00924, the solubility (mole fraction) (in chloroform, 308.15 K) was 0.0114 and the solubility (mole fraction) (in chloroform, 313.15 K) was 0.0138. It also gave a solubility (mole fraction) (in chloroform, 318.15 K) of 0.0166, a solubility (mole fraction) (in chloroform, 323.15 K) of 0.0197 and a solubility (mole fraction) (in ethanol, 273.15 K) of 0.00128. The solubility (mole fraction) (in ethanol, 278.15 K) was 0.00163, the solubility (mole fraction) (in ethanol, 283.15 K) was 0.00206 and the solubility (mole fraction) (in ethanol, 288.15 K) was 0.00259. It also gave a solubility (mole fraction) (in ethanol, 293.15 K) of 0.00323, a solubility (mole fraction) (in ethanol, 298.15 K) of 0.00396 and a solubility (mole fraction) (in ethanol, 303.15 K) of 0.00488. It also gave a solubility (mole fraction) (in ethanol, 308.15 K) of 0.00598, a solubility (mole fraction) (in ethanol, 313.15 K) of 0.00733 and a solubility (mole fraction) (in ethanol, 318.15 K) of 0.00886. The solubility (mole fraction) (in ethanol, 323.15 K) was 0.0106, the solubility (mole fraction) (in ethyl acetate, 273.15 K) was 0.00547 and the solubility (mole fraction) (in ethyl acetate, 278.15 K) was 0.00687. It also gave a solubility (mole fraction) (in ethyl acetate, 283.15 K) of 0.00856, a solubility (mole fraction) (in ethyl acetate, 288.15 K) of 0.0105 and a solubility (mole fraction) (in ethyl acetate, 293.15 K) of 0.0129. For the same compound, the solubility (mole fraction) (in ethyl acetate, 298.15 K) was 0.0155, the solubility (mole fraction) (in ethyl acetate, 303.15 K) was 0.0188 and the solubility (mole fraction) (in ethyl acetate, 308.15 K) was 0.023. It also gave a solubility (mole fraction) (in ethyl acetate, 313.15 K) of 0.0276, a solubility (mole fraction) (in ethyl acetate, 318.15 K) of 0.033 and a solubility (mole fraction) (in ethyl acetate, 323.15 K) of 0.0389. It also gave a solubility (mole fraction) (in ethylbenzene, 273.15 K) of 0.000515, a solubility (mole fraction) (in ethylbenzene, 278.15 K) of 0.000689 and a solubility (mole fraction) (in ethylbenzene, 283.15 K) of 0.000887. The solubility (mole fraction) (in ethylbenzene, 288.15 K) was 0.00115, the solubility (mole fraction) (in ethylbenzene, 293.15 K) was 0.0015 and the solubility (mole fraction) (in ethylbenzene, 298.15 K) was 0.00184. It also gave a solubility (mole fraction) (in ethylbenzene, 303.15 K) of 0.00238, a solubility (mole fraction) (in ethylbenzene, 308.15 K) of 0.00299 and a solubility (mole fraction) (in ethylbenzene, 313.15 K) of 0.00367. The solubility (mole fraction) (in ethylbenzene, 318.15 K) was 0.00462, the solubility (mole fraction) (in ethylbenzene, 323.15 K) was 0.00567 and the solubility (mole fraction) (in isopropanol, 273.15 K) was 0.00113. For the same compound, the solubility (mole fraction) (in isopropanol, 278.15 K) was 0.00149, the solubility (mole fraction) (in isopropanol, 283.15 K) was 0.0019 and the solubility (mole fraction) (in isopropanol, 288.15 K) was 0.00241. The solubility (mole fraction) (in isopropanol, 293.15 K) was 0.00302, the solubility (mole fraction) (in isopropanol, 298.15 K) was 0.00377 and the solubility (mole fraction) (in isopropanol, 303.15 K) was 0.0046. It also gave a solubility (mole fraction) (in isopropanol, 308.15 K) of 0.00574, a solubility (mole fraction) (in isopropanol, 313.15 K) of 0.00701 and a solubility (mole fraction) (in isopropanol, 318.15 K) of 0.00857. The solubility (mole fraction) (in isopropanol, 323.15 K) was 0.0105, the solubility (mole fraction) (in methanol, 273.15 K) was 0.00126 and the solubility (mole fraction) (in methanol, 278.15 K) was 0.00159. It also gave a solubility (mole fraction) (in methanol, 283.15 K) of 0.00199, a solubility (mole fraction) (in methanol, 288.15 K) of 0.00246 and a solubility (mole fraction) (in methanol, 293.15 K) of 0.0031. It also gave a solubility (mole fraction) (in methanol, 298.15 K) of 0.00375, a solubility (mole fraction) (in methanol, 303.15 K) of 0.00463 and a solubility (mole fraction) (in methanol, 308.15 K) of 0.00555. For the same compound, the solubility (mole fraction) (in methanol, 313.15 K) was 0.00675, the solubility (mole fraction) (in methanol, 318.15 K) was 0.00809 and the solubility (mole fraction) (in methanol, 323.15 K) was 0.00962. The solubility (mole fraction) (in n-propanol, 273.15 K) was 0.00122, the solubility (mole fraction) (in n-propanol, 278.15 K) was 0.00158 and the solubility (mole fraction) (in n-propanol, 283.15 K) was 0.00201. It also gave a solubility (mole fraction) (in n-propanol, 288.15 K) of 0.00256, a solubility (mole fraction) (in n-propanol, 293.15 K) of 0.00323 and a solubility (mole fraction) (in n-propanol, 298.15 K) of 0.00407. It also gave a solubility (mole fraction) (in n-propanol, 303.15 K) of 0.00502, a solubility (mole fraction) (in n-propanol, 308.15 K) of 0.00618 and a solubility (mole fraction) (in n-propanol, 313.15 K) of 0.0075. It also gave a solubility (mole fraction) (in n-propanol, 318.15 K) of 0.00916, a solubility (mole fraction) (in n-propanol, 323.15 K) of 0.0113 and a solubility (mole fraction) (in toluene, 273.15 K) of 0.000694. For the same compound, the solubility (mole fraction) (in toluene, 278.15 K) was 0.000889, the solubility (mole fraction) (in toluene, 283.15 K) was 0.00115 and the solubility (mole fraction) (in toluene, 288.15 K) was 0.00148. The solubility (mole fraction) (in toluene, 293.15 K) was 0.0019, the solubility (mole fraction) (in toluene, 298.15 K) was 0.00241 and the solubility (mole fraction) (in toluene, 303.15 K) was 0.003. For the same compound, the solubility (mole fraction) (in toluene, 308.15 K) was 0.00374, the solubility (mole fraction) (in toluene, 313.15 K) was 0.00463 and the solubility (mole fraction) (in toluene, 318.15 K) was 0.00573. The solubility (mole fraction) (in toluene, 323.15 K) was 0.00703.
